Literature values, collected in patent US20220168121A1, “FIBROSIS-INDUCING DRUG-ELUTING STENT FOR BLOCKING ELECTRIC CONDUCTION” (SUNGKWANG MEDICAL FOUNDATION, priority 2019, published 2022).
Counter-ions that a name gives are not always drawn.

water solubility	stability in a solid state (solid state)	Compound
water soluble	unstable properties in a solid state	CCCCC(CC)CCC(CC(C)C)OS(=O)(=O)O (stereo not drawn) [sodium tetradecyl sulfate]
water insoluble		CCCCCCCCCCCCCCOS(=O)(=O)O [sodium tetradecyl sulfate]
